According to US12692261B2, “Substituted heterocyclic compounds and therapeutic uses thereof” (Bayer Aktiengesellschaft, priority 2020, dated 2026):

Legend:
full-length human CSNK1D = molecular target: T1, full-length human CSNK1D (Homo sapiens, UniProt P48730); experiment: CSNK1D Assay (ADP-Glo, 1 μM ATP); assay type: biochemical; conditions: Table 3, read-out: CSNK1D IC50 [mol/l] (median)
T1 construct: N-terminal Glutathion-S-Transferase (GST) and full-length human CSNK1D; purchased Life Technologies PV3665; host or cells: baculovirus infected insect cells
T1 sequence (P48730 whole entry): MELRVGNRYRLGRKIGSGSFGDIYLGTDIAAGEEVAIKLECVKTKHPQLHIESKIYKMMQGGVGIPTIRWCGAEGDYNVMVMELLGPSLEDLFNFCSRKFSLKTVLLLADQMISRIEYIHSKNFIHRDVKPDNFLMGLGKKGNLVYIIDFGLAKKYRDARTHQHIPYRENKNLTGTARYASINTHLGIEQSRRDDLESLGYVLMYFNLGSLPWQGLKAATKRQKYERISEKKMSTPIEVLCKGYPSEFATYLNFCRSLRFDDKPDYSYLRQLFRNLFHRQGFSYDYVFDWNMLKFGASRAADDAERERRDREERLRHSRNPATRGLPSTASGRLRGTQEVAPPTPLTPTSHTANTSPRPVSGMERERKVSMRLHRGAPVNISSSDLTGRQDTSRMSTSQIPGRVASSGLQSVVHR
In short: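 ADP-Glo luminescence reports ADP generated by GST-fused full-length human CSNK1D (insect-cell expressed, about 0.5 ng/μL) acting on a biotinylated peptide at 1 μM ATP. Test compounds were pre-bound to enzyme 15 min at 22° C in 50 mM HEPES pH 7.5.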

[1] = molecular target: T2, full-length human CSNK1A1 (Homo sapiens, UniProt P48729); experiment: CSNK1A1 Assay 2 (ADP-Glo, 1 μM ATP, substrate biotin-Ahx-KRRRAL-pS-VASLPGL); assay type: biochemical; conditions: Table 3, read-out: CSNK1A1 Assay 2 IC50 [mol/l] (median)
T2 construct: N-terminal Glutathion-S-Transferase (GST) and full-length human CSNK1A1; purchased Life Technologies PV4174; host or cells: baculovirus infected insect cells
T2 sequence (P48729 whole entry): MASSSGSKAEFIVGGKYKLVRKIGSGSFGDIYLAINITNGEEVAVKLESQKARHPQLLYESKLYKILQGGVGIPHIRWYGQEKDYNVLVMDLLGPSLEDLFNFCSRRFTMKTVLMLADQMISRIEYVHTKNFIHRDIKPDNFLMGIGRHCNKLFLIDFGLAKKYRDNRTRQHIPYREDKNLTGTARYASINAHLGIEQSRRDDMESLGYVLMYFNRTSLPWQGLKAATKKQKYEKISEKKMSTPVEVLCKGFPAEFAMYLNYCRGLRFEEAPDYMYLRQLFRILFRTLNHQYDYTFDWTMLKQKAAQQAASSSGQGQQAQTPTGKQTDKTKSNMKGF
In short: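 Activity read as ADP generated (ADP-Glo luciferase luminescence, 1 h detection steps at 22 °C). Enzyme was insect-cell-expressed GST–full-length human CSNK1A1, compound-preincubated 15 min before reaction with phosphopeptide substrate and 1 μM ATP in 50 mM HEPES pH 7.5, 10 mM MgCl2.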

Row | SMILES | IC50 (full-length human CSNK1D) [nM] | IC50 [1] [nM]
1 | O=C(Nc1cc(-c2[nH]c3c(OCC(F)F)cc(F)nc3c2-c2ccccn2)ccn1)C(CC(F)F)c1ccc(F)cc1 (single isomer, unassigned) [Example 30, (2R or S)—N-{4-[7-(2,2-difluoroethoxy)-5-fluoro-3-(pyridin-2-yl)-1H-pyrrolo[3,2-b]pyridin-2-yl]pyridin-2-yl}-4,4-difluoro-2-(4-fluorophenyl)butanamide] | 14.7 | 8.84
2 | O=C(Nc1cc(-c2[nH]c3nccnc3c2-c2ccccn2)ccn1)[C@@H](CC(F)F)c1ccc(F)cc1 (single isomer, unassigned) [Example 32] | 4.55 | 1.37
3 | Cc1cc2[nH]c(-c3ccnc(NC(=O)C(CC(F)F)c4ccc(F)cc4)c3)c(-c3ccccn3)c2nc1F (single isomer, unassigned) [Example 34, 4,4-difluoro-N-{4-[5-fluoro-6-methyl-3-(pyridin-2-yl)-1H-pyrrolo[3,2-b]pyridin-2-yl]pyridin-2-yl}-2-(4-fluorophenyl)butanamide] | 6.86 | 3.79
4 | Cc1cc2[nH]c(-c3ccnc(NC(=O)C(CC(F)F)c4ccc(F)cc4)c3)c(-c3ccccn3)c2nc1F (single isomer, unassigned) [Example 35, 4,4-difluoro-N-{4-[5-fluoro-6-methyl-3-(pyridin-2-yl)-1H-pyrrolo[3,2-b]pyridin-2-yl]pyridin-2-yl}-2-(4-fluorophenyl)butanamide] | 3.7 | 2.69
5 | O=C(Nc1cc(-c2[nH]c3c(OC4CC4)cc(F)nc3c2-c2ccccn2)ccn1)C(CC(F)F)c1ccc(F)cc1 (single isomer, unassigned) [Example 43, N-{4-[7-(cyclopropyloxy)-5-fluoro-3-(pyridin-2-yl)-1H-pyrrolo[3,2-b]pyridin-2-yl]pyridin-2-yl}-4,4-difluoro-2-(4-fluorophenyl)butanamide] | 7.64 | 10.2
6 | O=C(Nc1cc(-c2[nH]c3c(CC4CC4)cc(F)nc3c2-c2ccccn2)ccn1)C(CC(F)F)c1ccc(F)cc1 (single isomer, unassigned) [Example 47, (2R or S)—N-{4-[7-(cyclopropylmethyl)-5-fluoro-3-(pyridin-2-yl)-1H-pyrrolo[3,2-b]pyridin-2-yl]pyridin-2-yl}-4,4-difluoro-2-(4-fluorophenyl)butanamide] | 59 | 31.6
7 | O=C(Nc1cc(-c2[nH]c3c(CC4CC4)cc(F)nc3c2-c2ccccn2)ccn1)C(CC(F)F)c1ccc(F)cc1 (single isomer, unassigned) [Example 48, (2R or S)—N-{4-[7-(cyclopropylmethyl)-5-fluoro-3-(pyridin-2-yl)-1H-pyrrolo[3,2-b]pyridin-2-yl]pyridin-2-yl}-4,4-difluoro-2-(4-fluorophenyl)butanamide] | 6.99 | 9.91
8 | O=C(Nc1cc(-c2[nH]c3c(N4CCNCC4)ccnc3c2-c2ccccn2)ccn1)C(CC(F)F)c1ccc(F)cc1 (single isomer, unassigned) [Example 93, (2R or S)-4,4-difluoro-2-(4-fluorophenyl)-N-{4-[7-(piperazin-1-yl)-3-(pyridin-2-yl)-1H-pyrrolo[3,2-b]pyridin-2-yl]pyridin-2-yl}butanamide] | 17.3 | 5.35
9 | O=C(Nc1cc(-c2[nH]c3c(N4CCNCC4)ccnc3c2-c2ccccn2)ccn1)C(CC(F)F)c1ccc(F)cc1 (single isomer, unassigned) [Example 94, (2R or S)-4,4-difluoro-2-(4-fluorophenyl)-N-{4-[7-(piperazin-1-yl)-3-(pyridin-2-yl)-1H-pyrrolo[3,2-b]pyridin-2-yl]pyridin-2-yl}butanamide] | 3.67 | 2.31
10 | O=C(Nc1cc(-c2[nH]c3ccc(F)nc3c2-c2cc(F)ccn2)ccn1)C(CC(F)F)c1ccc(F)cc1 (single isomer, unassigned) [Example 96, (2R or S)-4,4-difluoro-N-{4-[5-fluoro-3-(4-fluoropyridin-2-yl)-1H-pyrrolo[3,2-b]pyridin-2-yl]pyridin-2-yl}-2-(4-fluorophenyl)butanamide] | 10.4 | 4.67
